Columns and labels:
Format in all cases: in vivo
apple seedlings = experiment: Photochemical efficacy of electron transport (Fv/Fm, PAM fluorometer) in apple seedlings after simulated frost event; conditions: Golden Delicious seedlings
Procedure: Intact photosynthesis in leaves and other green plant tissues is of utmost importance for frost resistance and the intensity of the subsequent regeneration processes. To study the effect of compounds I which were used in accordance with the invention, the photosynthesis rate of treated (a.5) to (e.5)) and untreated apple seedlings which had been subjected to a simulated frost event was determined.
The material used for the experiments was apple seedlings which had been grown from seeds of Golden Delicious apples following cold stratification under controlled-environment cabinet conditions (temperature approx. 20° C.; relative atmospheric humidity approx. […]; day:night=10.5:13.5 hours; light intensity approx. 200 μmol m^−2 s^−1) and which had three to four fully formed leaves at the point in time of treatment. Batches of 10 plants per combination were treated as follows:
To simulate the frost event, the plants were subjected to the following chill program: • removal from the controlled-environment cabinet (20° C.) • transfer into the chill cell to randomized positions at a height of approximately 40 cm for approx. 6 hours at 12° C. • 2 hours at 4° C. • 1.5 hours at 2° C. • 1 hour at 0° C. • 3.5 hours at −3° C. • controlled-environment cabinet (20° C.)
The photosynthesis rate of the stressed apple seedlings was subsequently determined with the aid of a pulse amplitude modulation fluorometer (PAM 2000, Heinz Walz GmbH, Effeltrich). The quotient Fv/Fm, which is determined, describes the amount of light energy captured by the photosynthesis apparatus of the plants which can be exploited for the production of assimilates. Fv represents the variable fluorescence, which corresponds to the difference between F0 (basal fluorescence, which is measured when a dark-adapted leaf is irradiated with fluorescence-exciting light) and Fm (maximum fluorescence of a dark-adapted leaf) (Fv/Fm=(Fm−F0)/Fm).

apple flowers [1] = experiment: Frost damage on apple flowers, simulated frost event
From the text: To study the effect of compounds I used in accordance with the invention, flower buds or flowers of various apple varieties were sprayed to run-off point at different stages and different points in time with prohexadione-calcium in the form of the commercial preparation Regalis® from BASF AG in the form of 10% strength granules with 250 ppm of active substance or with a mixture of vitamin E and glycerol (see treatments a) to d)) and subjected to a naturally occurring or simulated frost event during mid-bloom. The treated flowering branches and untreated flowering branches which had been subjected to the same frost event and which acted as control, were subsequently transferred for 2 to 4 days into a greenhouse with temperatures ranging from 15 to 25° C., and the floral injury was assessed. Apple branches with flower buds or flowers (R. Cox) were treated as specified under a.1), b.1), c.1) or d.1) and subsequently subjected to a simulated frost event. Nine days (a.1)) or one day (b.1)-d.1)) after the treatment, the treated flowering branches and untreated control branches were cut off and subjected to a simulated frost event. The temperature program of the simulated frost event was as follows: • chilling from 12° C. to 4° C. within 30 minutes • one hour at 4° C. • chilling from 4° C. to 2° C. within 15 minutes • 75 minutes at 2° C. • chilling from 2° C. to −3° C. within 30 minutes • 150 minutes at −3° C. Two days after the frost event, the floral damage was assessed by examining the individual flowers. At the time of evaluation, the flowers were in the floral stage BBCH 54-56 (BBCH=Biologische Bundesanstalt für Land- und Forstwirtschaft, Bundessortenamt und Chemische Industrie [Federal Biological Institute for Agriculture and Forestry, Federal Office for Crop Plant Varieties, Chemical Industry]). Those flowers whose ovary is brownish in color are considered as damaged (destroyed). The data which represent the percentage of damaged flowers correspond to the mean±standard deviation. A statistically significant difference (critical difference: 5%) between the means of the various measurement series is identified by different letters. Apple branches with flower buds or flowers (R. Cox) were treated analogously to Example 1.1.1, but remained for 210 minutes in the frost chamber at −3° C. Apple branches with flower buds or flowers (Jonagold) were treated analogously to Example 1.1.1. They remained for 150 minutes in the frost chamber at −3° C. At the time of evaluation, the flowers were in floral stage BBCH 56-57. Apple branches with flower buds or flowers (Jonagold) were treated analogously to Example 1.1.3, but remained for 210 minutes in the frost chamber at −3° C. Apple branches with flower buds or flowers (Gala) were treated as described under a.2), b.2), c.2) or d.2) and subsequently subjected to a simulated frost event. 11 days (a.2)) or two days (b.2)-d.2)) after the treatment, the treated flowering branches and untreated control branches were cut off and subjected to a simulated frost event. The temperature program of the simulated frost event corresponded to the one in Example 1.1.1. Four days after the frost event, the floral damage was assessed by examining the individual flowers. At the time of evaluation, the flowers were in floral stage BBCH 57-59. Apple branches with flower buds or flowers (Boskoop) were treated analogously to Example 1.1.5. At the time of evaluation, the flowers were in floral stage BBCH 59-61. They remained at −3° C. for 150 minutes.

apple flowers [2] = experiment: Frost damage on apple flowers, naturally occurring frost event
From the text: To study the effect of compounds I used in accordance with the invention, flower buds or flowers of various apple varieties were sprayed to run-off point at different stages and different points in time with prohexadione-calcium in the form of the commercial preparation Regalis® from BASF AG in the form of 10% strength granules with 250 ppm of active substance or with a mixture of vitamin E and glycerol (see treatments a) to d)) and subjected to a naturally occurring or simulated frost event during mid-bloom. The treated flowering branches and untreated flowering branches which had been subjected to the same frost event and which acted as control, were subsequently transferred for 2 to 4 days into a greenhouse with temperatures ranging from 15 to 25° C., and the floral injury was assessed. Apple branches with flower buds or flowers (R. Cox) were treated as described under a.3), b.3), c.3) or d.3) and subsequently subjected to a naturally occurring frost event. The frost period lasted 5 days. The lowest temperature was reached on day two of the frost event and was −4° C. One day after the frost event, the treated flowering branches and untreated control branches were cut off. One day after the branches had been cut off, the floral damage was assessed by examining the individual flowers. At the time of evaluation, the flowers were in floral stage BBCH 56-57. Apple branches with flower buds or flowers (Jonagold) were treated analogously to Example 1.2.1 and exposed to the same frost event. At the time of evaluation, the flowers were in floral stage BBCH 57-59. Apple branches with flower buds or flowers (Boskoop) were treated as described under a.4), b.4), c.4) or d.4) and subsequently subjected to a naturally occurring frost event. The frost period lasted for one day. The lowest temperature was −1.2° C. Two days after the frost event, the treated flowering branches and untreated control branches were cut off, and one day after the branches had been cut off, the floral damage was assessed by examining the individual flowers. At the time of evaluation, the flowers were in floral stage BBCH 57-61.

CCC(=O)C1=C([O-])CC(C(=O)[O-])CC1=O.[Ca+2] (centres unmarked) [prohexadione-calcium]
Fv/Fm (apple seedlings; sprayed 2 days prior to simulated frost (3.5 hours at −3° C.), prohexadione-calcium 50 ppm, 24 hours after frost): survived the frost event virtually undamaged | Fv/Fm (apple seedlings; sprayed 2 days prior to simulated frost (3.5 hours at −3° C.); prohexadione-calcium 50 ppm; 24 hours after frost; listed as c.5)): 0.804 | Fv/Fm (apple seedlings; sprayed 8 days prior to simulated frost (3.5 hours at −3° C.), 50 ppm prohexadione-calcium, 24 hours after frost): survived the frost event virtually undamaged | Fv/Fm (apple seedlings; sprayed 8 days prior to simulated frost (3.5 hours at −3° C.); 50 ppm prohexadione-calcium; 24 hours after frost; listed as b.5)): 0.809 | Fv/Fm (apple seedlings; sprayed 21 days prior to simulated frost (3.5 hours at −3° C.), 50 ppm prohexadione-calcium, 24 hours after frost): survived the frost event virtually undamaged | Fv/Fm (apple seedlings; sprayed 21 days prior to simulated frost (3.5 hours at −3° C.); 50 ppm prohexadione-calcium; 24 hours after frost; listed as a.5)): 0.812 | Percentage of damage to flowers (apple flowers [1]; Boskoop, buds sprayed eleven days prior to simulated frost, prohexadione-calcium 250 ppm, 150 minutes at −3° C., mean±SD): significantly fewer | Percentage of damage to flowers (apple flowers [1]; Boskoop; buds sprayed eleven days prior to simulated frost; prohexadione-calcium 250 ppm; 150 minutes at −3° C.; mean±SD; listed as a.2)): 33.6 ± 4.1% | Percentage of damage to flowers (apple flowers [1]; Boskoop, flowers (mid-bloom) sprayed two days prior to simulated frost, prohexadione-calcium 250 ppm, 150 minutes at −3° C., mean±SD): significantly fewer | Percentage of damage to flowers (apple flowers [1]; Boskoop, flowers (mid-bloom) sprayed two days prior to simulated frost; prohexadione-calcium 250 ppm; 150 minutes at −3° C.; mean±SD; listed as b.2)): 36.8 ± 4.2% | Percentage of damage to flowers (apple flowers [1]; Gala, buds sprayed eleven days prior to simulated frost, prohexadione-calcium 250 ppm, 150 minutes at −3° C., assessed four days after frost, mean±SD): tends to reduce the damage | Percentage of damage to flowers (apple flowers [1]; Gala; buds sprayed eleven days prior to simulated frost; prohexadione-calcium 250 ppm; 150 minutes at −3° C.; assessed four days after frost; mean±SD; listed as a.2)): 5.2 ± 1.8% | Percentage of damage to flowers (apple flowers [1]; Gala, flowers (mid-bloom) sprayed two days prior to simulated frost, prohexadione-calcium 250 ppm, 150 minutes at −3° C., assessed four days after frost, mean±SD): 8.8 ± 2.5% | Percentage of damage to flowers (apple flowers [1]; Jonagold, buds sprayed nine days prior to simulated frost, prohexadione-calcium 250 ppm, 150 minutes at −3° C., mean±SD): significantly fewer | Percentage of damage to flowers (apple flowers [1]; Jonagold; buds sprayed nine days prior to simulated frost; prohexadione-calcium 250 ppm; 150 minutes at −3° C.; mean±SD; listed as a.1)): 54.4 ± 3.2% | Percentage of damage to flowers (apple flowers [1]; Jonagold, buds sprayed nine days prior to simulated frost, prohexadione-calcium 250 ppm, 210 minutes at −3° C., mean±SD): significantly less damage | Percentage of damage to flowers (apple flowers [1]; Jonagold; buds sprayed nine days prior to simulated frost; prohexadione-calcium 250 ppm; 210 minutes at −3° C.; mean±SD; listed as a.1)): 43.8 ± 4.2% | Percentage of damage to flowers (apple flowers [1]; Jonagold, flowers (mid-bloom) sprayed one day prior to simulated frost, prohexadione-calcium 250 ppm, 150 minutes at −3° C., mean±SD): 69.0 ± 2.9% | Percentage of damage to flowers (apple flowers [1]; Jonagold, flowers (mid-bloom) sprayed one day prior to simulated frost, prohexadione-calcium 250 ppm, 210 minutes at −3° C., mean±SD): significantly less damage | Percentage of damage to flowers (apple flowers [1]; Jonagold, flowers (mid-bloom) sprayed one day prior to simulated frost; prohexadione-calcium 250 ppm; 210 minutes at −3° C.; mean±SD; listed as b.1)): 66.0 ± 2.7% | Percentage of damage to flowers (apple flowers [1]; R. Cox, buds sprayed nine days prior to simulated frost, prohexadione-calcium 250 ppm, 210 minutes at −3° C., mean±SD): significantly fewer | Percentage of damage to flowers (apple flowers [1]; R. Cox; buds sprayed nine days prior to simulated frost; prohexadione-calcium 250 ppm; 210 minutes at −3° C.; mean±SD; listed as a.1)): 6.0 ± 1.2% | Percentage of damage to flowers (apple flowers [1]; R. Cox, buds sprayed to run-off nine days prior to simulated frost, prohexadione-calcium 250 ppm, 150 minutes at −3° C., assessed two days after frost, mean±SD): significantly fewer | Percentage of damage to flowers (apple flowers [1]; R. Cox; buds sprayed to run-off nine days prior to simulated frost; prohexadione-calcium 250 ppm; 150 minutes at −3° C.; assessed two days after frost; mean±SD; listed as a.1)): 15.6 ± 2.5% | Percentage of damage to flowers (apple flowers [1]; R. Cox, flowers (mid-bloom) sprayed one day prior to simulated frost, prohexadione-calcium 250 ppm, 210 minutes at −3° C., mean±SD): 33.3 ± 2.6% | Percentage of damage to flowers (apple flowers [1]; R. Cox, flowers (mid-bloom) sprayed to run-off one day prior to simulated frost, prohexadione-calcium 250 ppm, 150 minutes at −3° C., assessed two days after frost, mean±SD): 23.1 ± 2.4% | Percentage of damage to flowers (apple flowers [2]; Boskoop, buds sprayed thirteen days prior to natural frost, prohexadione-calcium 250 ppm, frost one day, lowest −1.2° C., mean±SD): 84.3 ± 3.3% | Percentage of damage to flowers (apple flowers [2]; Boskoop, flowers (mid-bloom) sprayed five days prior to natural frost, prohexadione-calcium 250 ppm, frost one day, lowest −1.2° C., mean±SD): significantly fewer | Percentage of damage to flowers (apple flowers [2]; Boskoop, flowers (mid-bloom) sprayed five days prior to natural frost; prohexadione-calcium 250 ppm; frost one day, lowest −1.2° C.; mean±SD; listed as b.4)): 74.7 ± 3.0% | Percentage of damage to flowers (apple flowers [2]; Jonagold, buds sprayed ten days prior to natural frost, prohexadione-calcium 250 ppm, frost period 5 days, lowest −4° C., mean±SD): 67.5 ± 2.3% | Percentage of damage to flowers (apple flowers [2]; Jonagold, flowers (mid-bloom) sprayed two days prior to natural frost, prohexadione-calcium 250 ppm, frost period 5 days, lowest −4° C., mean±SD): 67.7 ± 2.6% | Percentage of damage to flowers (apple flowers [2]; R. Cox, buds sprayed ten days prior to natural frost, prohexadione-calcium 250 ppm, frost period 5 days, lowest −4° C., mean±SD): reduced floral damage | Percentage of damage to flowers (apple flowers [2]; R. Cox; buds sprayed ten days prior to natural frost; prohexadione-calcium 250 ppm; frost period 5 days, lowest −4° C.; mean±SD; listed as a.3)): 88.3 ± 1.3% | Percentage of damage to flowers (apple flowers [2]; R. Cox, flowers (mid-bloom) sprayed two days prior to natural frost, prohexadione-calcium 250 ppm, frost period 5 days, lowest −4° C., mean±SD): reduced floral damage | Percentage of damage to flowers (apple flowers [2]; R. Cox, flowers (mid-bloom) sprayed two days prior to natural frost; prohexadione-calcium 250 ppm; frost period 5 days, lowest −4° C.; mean±SD; listed as b.3)): 76.6 ± 1.7%
